Tests used:
MC3T3-E1 cells = test: Centrifugation cell adhesion assay on ligand-tethered SAMs; format: cell-based, murine
Description: MC3T3-E1 murine immature osteoblast-like cells (Riken Cell Bank, Hirosawa, Japan) were used because of their expression of multiple integrins, including alpha5beta1, alpha2beta1, and alphaVbeta3. Cells were maintained at 37° C. in α-MEM supplemented with 10% FBS and 1% penicillin-streptomycin and passaged every 2-3 days via standard culture techniques.
Self-assembled monolayers (SAMs) of alkanethiols on gold were used to present well-defined, ordered surfaces with anchoring groups within a non-fouling background. Tri(ethylene glycol)-terminated alkanethiol (HS—(CH2)11—(OCH2CH2)3—OH; EG3) and carboxylic acid-terminated alkanethiol (HS—(CH2)11—(OCH2CH2)6—OCH2COOH; EG6-COOH) were previously synthesized and characterized. Gold-coated substrates were prepared by sequential deposition of titanium (100 Å) and gold (200 Å) films via an electron beam evaporator (Thermionics Laboratories, Hayward, Calif., 2×10^−6 Torr, 1 A/s) onto clean 6-well plate lids or glass coverslips. Mixed SAM surfaces were prepared on substrates by immersing in a 1.0 mM mixed solution of EG3/EG6-COOH thiols (4 h). Peptide ligands were tethered using standard peptide chemistry. Briefly, following washing in ethanol and ultrapure H2O, SAMs were incubated in 2.0 mM EDC and 5.0 mM NHS in 0.1 M 2-(N-morpho)-ethanesulfonic acid and 0.5 M NaCl (pH 6.0), and subsequently immersed in a 20 mM solution of 2-mercaptoethanol in deionized H2O. Adhesive ligands in PBS were then incubated on the activated supports for 30 min and the unreacted surface NHS esters were then quenched in 20 mM glycine. Finally, the surfaces were blocked in 1% heat-denatured bovine serum albumin (BSA) and then incubated overnight in DPBS to reduce nonspecific protein adsorption.
A modification of a centrifugation assay was used to apply controlled detachment forces to cells adhering to engineered surfaces. Multi-wells of engineered surfaces were created on gold-coated polystyrene plate lids using silicone gaskets (Grace Bio-Labs, Bend, Oreg.). Mixed SAMs were assembled and ligands tethered at varying densities. MC3T3-E1 cells were labeled with […] calcein-AM, a membrane-permeable green fluorescent dye, in 2 mM dextrose-DPBS for 30 min and resuspended in α-MEM with 10% FBS. Cells were seeded onto the surfaces at 200 cells/mm^2, and allowed to attach for 1 h at 37° C. For blocking antibody experiments, cells were incubated in the presence of function-perturbing antibodies (10 μg/ml) for 10 min with gentle agitation prior to cell seeding. Before centrifugation, cell images were taken using a Nikon TE-300 fluorescence microscope and Spot RT digital camera. Wells were then filled completely with dextrose-PBS, sealed, inverted, and centrifuged for 5 min at a prescribed speed on a Beckman Allegra 6 centrifuge (GH 3.8 rotor) to apply normal detachment forces. Media was then gently aspirated from the wells, and wells were refilled for post-spin image collection. Post/pre-spin cell ratios were determined by image analysis, and this adhesive fraction was plotted against ligand surface density to obtain cell adhesion profiles.

[1] = tested on: HFN7.1 monoclonal antibody; test: ELISA with HFN7.1 monoclonal antibody; format: binding; conditions: passively adsorbed ligands, various coating concentrations
Description: An ELISA was used to probe for the biological activity of the FNIII7-10 fragment compared to pFN. FNIII7-10 or pFN was adsorbed onto either uncoated or Neutravidin-coated (100 μg/ml) 96-well black U-well Dynex plates at various concentrations for 30 min. Following incubation in blocking buffer (0.25% BSA, 0.1 M EDTA, 2.5% Tween-20, 0.00125% NaN3), HFN7.1 antibody (0.6 μg/ml in blocking buffer) was added for 1 h at 37° C., and, after washing with blocking buffer, surfaces were incubated in alkaline phosphatase-conjugated anti-mouse IgG (0.6 μg/ml) for 1 h at 37° C. Washed surfaces were exposed to 4-methylumbelliferyl phosphate (25 mg/ml in 10 mM diethanolamine, pH 9.5). The resulting fluorescence was quantified using an HTS 7000 Plus plate reader (Perkin Elmer, Foster City, Calif.) at 360 nm excitation and 465 nm emission.

rat tibia cortical bone = test: Rat tibia cortical bone implantation, histology and bone-implant contact histomorphometry; format: in vivo; conditions: 4 weeks
Description: Commercially pure titanium implants (FIG. 4) were sonicated in de-ionized water for 20 min to remove surface debris. Implants were then dipped in 4% HF for 30 sec to remove the existing oxide layer and then incubated in 35% HNO3 for 30 min at 50° C. to regenerate a new oxide coating. Samples were transferred to 1.8 N NaOH for 1 min to terminate the oxidation reaction. Implants were then rinsed and boiled in de-ionized water for 1 h. To create the bioactive coating, the implants were incubated in 20 μg/ml GFOGER peptide (SEQ ID NO:1) or type I collagen solution for 1 h. Control titanium rods were incubated in PBS.
Implantations were conducted in accordance with an IACUC-approved protocol. Both hind legs of anesthetized, mature Sprague-Dawley male rats (250-350 g) were shaved and scrubbed with alcohol. The medial aspect of the proximal tibial metaphysis was exposed through an antero-medial skin incision, leaving the medial collateral ligament intact. Using a saline-cooled drill, two defects were created in each tibia. Sterile implant rods were press fit into the defects. Periosteum was mobilized and sutured over the implantation site, and the skin was closed with wound clips. Subjects were euthanized after 4 weeks and proximal tibiae were fixed in neutral buffered formalin for histology or recovered without fixation and maintained in PBS-moistened gauze for immediate mechanical testing.
Excised tibiae were fixed in 10% neutral buffered formalin for 1 week. […] Ground sections of 50-80 μm were generated using the Exakt Grinding System™. Two longitudinal ground sections were generated per tibia, each containing two titanium plugs inserted transverse to the tibia's long axis. Sections were then stained with Sanderson's Rapid Bone Stain™ and a van Gieson counter stain. Bone implant contact (BIC) was measured as the percentage of implant's circumference that was in direct contact with bone tissue (Adobe Photoshop® CS imaging software).
To evaluate the performance of the bioactive GFOGER peptide (SEQ ID NO:1) treatment in vivo, osseointegration in a rat tibia cortical bone model was quantified using quantitative histomorphometry and pull-out mechanical testing. A cylindrical titanium implant rod with a tapered stop collar was designed (FIG. 4). The tapered head ensures that all implants are inserted into the bone at the same depth, guaranteeing uniform bone contact among treatments. Using a saline-cooled drill, two defects 2 mm in diameter were created in the medial aspect of the proximal tibial metaphysis. Implant rods consisting of GFOGER peptide (SEQ ID NO:1) functionalized or untreated (control) titanium were press fit into the cortical defects. After four weeks, the rat tibiae were harvested and evaluated for bone apposition by histological staining and mechanical integration by pull-out testing. […] Representative micrographs show 50-80 μm longitudinal ground sections of rat tibia stained with Sanderson's Rapid Bone Stain™ and van Gieson counterstain. Cells stain dark to light blue, soft tissue elements stain blue-green, and bone matrix stains yellow orange to autumn orange.
Osseointegration of implants in a rat tibia cortical bone model was quantified to evaluate the in vivo performance of the engineered titanium surfaces in bone healing. Importantly, this in vivo model provides a rigorous platform to evaluate implant coating function in a relevant orthopaedic setting. Two 2.0-mm diameter defects were drilled into the medial aspect of the proximal tibial metaphysis using a saline cooled drill. Tapered cylindrical implants (FIG. 4) of clinical-grade titanium were press-fit into the cortical defects.

“GRGDG13PHSRN (GRGDGGGGGGGGGGGGGPHSRN) [RGD-PHSRN]” was tested, and the “ADH50 (ligand density required for half-maximal adhesion)” value (MC3T3-E1 cells; ligand tethered to SAMs, MC3T3-E1) was 1950 fmol/cm^2 and the “adhesion with blocking antibodies against α5β1 integrin” value (MC3T3-E1 cells; maximum ligand density, normalized to unblocked controls) was “only slightly reduced adhesion”.
For “pFN: human plasma fibronectin obtained from Invitrogen”, the “HFN7.1 binding (biological activity)” value [1] was “increased with protein coating concentration”.
“type I collagen: native type I collagen coating on titanium implants” was tested, and the “bone apposition (bone implant contact, BIC)” value (rat tibia cortical bone; passively coated implants vs untreated titanium) was “COL>Ti” and the “histology: peri-implant bone mineral” value (rat tibia cortical bone; passively coated titanium implants (20 μg/ml)) was “Less bone mineral was visible”.
